Here are results for three compounds from patent US20200179327A1, “USE OF PHENOLIC COMPOUNDS FROM OLEA EUROPAEA” (McCord Research, Inc., priority 2017, published 2020).

Data set [1] concerns peripheral blood mononuclear cells (PBMC). Put plainly: Cell viability/proliferation, Cell-Titer Blue, PBMC. The following applies: 0-800 μM, 24, 48 or 72 hours. The format is cell-based, human. As to the method: (§1) Human peripheral blood mononuclear cells (PBMCs) were fractionated using the Ficoll Plaque fractionation method from whole blood obtained from the Australian Red Cross Blood Bank (ARCB) under ethic approval (#304/12). Cells were harvested fresh on the day of the experiments and maintained in complete-RPMI-1640 medium supplemented with 10% FBS, 2 mM L-glutamine and 20 μg/mL gentamicin at 37° C., 5% (v/v) CO2. Human aortic endothelial cells (HAECs, ATCC) and the equivalent cells taken for patients with Type II diabetes (DII-HAECs, ATCC) were cultured in endothelial cell growth medium (ECM) supplemented with 100 U/ml penicillin, 100 μg/ml streptomycin, 0.25 μg/ml fungizone, 2 mM L-glutamine, 5 U/ml heparin, 30-50 μg/ml endothelial cell growth supplement (Technoclone, Vienna, Austria). All cells were passaged by typsination and seeded into 6 well culture dishes at cell densities of 1×10^6 cells per well; at 37° C., 5% (v/v) CO2. […] Cell viability was measured using the Cell-Titer Blue® Assay kit (Promega, Madison, Wis., USA) according to the manufacturer's instructions. Cell-Titer Blue reagent was added to each well and incubated for 4 hours at 37° C., 5% CO2, before reading fluorescence intensity (550 nm excitation; 615 nm emission) using the CLARIOstar (BMG LABTECH, Offenburg, Germany) microplate reader. […]

Data set [2] relates to primary skin fibroblasts (BJ). Put plainly: Cell viability/proliferation, Cell-Titer Blue, BJ. The format is cell-based, human. As to conditions: 0-800 μM, 24, 48 or 72 hours.
In data set [3] the test system is primary human aortic endothelial cells from a healthy patient (h-HAEC). Put plainly: Cell viability/proliferation, Cell-Titer Blue, h-HAEC. The format is cell-based. As to conditions: 0-800 μM, 24, 48 or 72 hours. As to the method:
as §1

Data set [4] deals with human aortic endothelial cells from patient with Type II diabetes (DII-HAEC). In words: Cell viability/proliferation, Cell-Titer Blue, DII-HAEC. As to conditions: 0-800 μM, 24, 48 or 72 hours. The format is cell-based. As to the method: as §1
The target in data set [5] is T1, lysine-specific demethylase 1 (LSD1) (Homo sapiens, UniProt O60341).
T1 construct: purchased EpiGentek
In words: EpiQuik Histone Demethylase LSD1 inhibitor screening assay. In kind it is biochemical. As to conditions: 10-dose, 2-fold dilution from 200 μM; read-out: LSD1 enzyme activity inhibition IC50.

The target of data set [6] is T2, COX-1 (Ovis aries, UniProt P05979).
T2 construct: purchased BioVision
T2 sequence (P05979 25-600): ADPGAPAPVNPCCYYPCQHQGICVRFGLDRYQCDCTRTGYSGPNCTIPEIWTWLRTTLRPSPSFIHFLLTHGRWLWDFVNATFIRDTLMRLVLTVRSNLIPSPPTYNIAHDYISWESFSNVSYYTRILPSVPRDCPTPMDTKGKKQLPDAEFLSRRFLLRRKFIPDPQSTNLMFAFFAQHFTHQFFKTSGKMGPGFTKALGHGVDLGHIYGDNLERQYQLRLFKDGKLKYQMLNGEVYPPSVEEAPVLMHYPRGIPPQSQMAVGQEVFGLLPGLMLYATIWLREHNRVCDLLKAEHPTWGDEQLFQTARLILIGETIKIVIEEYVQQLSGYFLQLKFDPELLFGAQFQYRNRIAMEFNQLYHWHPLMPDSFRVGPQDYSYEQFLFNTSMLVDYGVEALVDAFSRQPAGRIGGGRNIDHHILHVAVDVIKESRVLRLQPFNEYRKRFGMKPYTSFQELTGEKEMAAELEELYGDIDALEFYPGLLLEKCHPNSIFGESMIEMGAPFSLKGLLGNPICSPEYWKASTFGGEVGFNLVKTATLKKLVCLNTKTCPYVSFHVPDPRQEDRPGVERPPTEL
Put plainly: COX-1/2 inhibitor screening kit (BioVision), COX-1. The format is biochemical. As to conditions: 10-dose, 2-fold dilution from 1000 μM; read-out: COX-1 inhibition IC50. As to the method: (§2) Inhibition of individual COX-1 and COX-2 enzymes by MMBHTE and oleocanthal was measured using the COX-1/2 inhibitor screening kit (BioVision, Milpatas, Calif., USA), according to the manufacturer's instructions. […] The production of prostaglandin G2, the intermediate product generated by the COX enzyme in the presence of arachidonic acid is measured by coupling with HRP and COX substrate and fluorescence was measured using the CLARIOstar microplate reader at Ex/Em=535/587 nm. Data is represented at the percentage of COX enzymatic activity inhibition relative to the log of the compound and a curve fit for the control compound. Corresponding IC50 values were calculated.
(§3) FIG. 6A and FIG. 6B show the inhibition activities of MMBHTE and Oleocanthal on COX-1 and COX-2, respectively. The data shown in FIG. 6A and FIG. 6B indicates all the test samples fell within the detectable range. The data shown in FIG. 6A and FIG. 6B is represented as the percentage of COX enzymatic activity inhibition relative to the log of the concentrations and best-fit curves for MMBHTE and Oleocanthal. Corresponding IC50 values were calculated. […] Therefore, MMBHTE is a […] COX-1 and COX-2 inhibitor.

Data set [7] addresses T3, COX-2 (Homo sapiens, UniProt P35354).
T3 construct: purchased BioVision
T3 sequence (P35354 18-604): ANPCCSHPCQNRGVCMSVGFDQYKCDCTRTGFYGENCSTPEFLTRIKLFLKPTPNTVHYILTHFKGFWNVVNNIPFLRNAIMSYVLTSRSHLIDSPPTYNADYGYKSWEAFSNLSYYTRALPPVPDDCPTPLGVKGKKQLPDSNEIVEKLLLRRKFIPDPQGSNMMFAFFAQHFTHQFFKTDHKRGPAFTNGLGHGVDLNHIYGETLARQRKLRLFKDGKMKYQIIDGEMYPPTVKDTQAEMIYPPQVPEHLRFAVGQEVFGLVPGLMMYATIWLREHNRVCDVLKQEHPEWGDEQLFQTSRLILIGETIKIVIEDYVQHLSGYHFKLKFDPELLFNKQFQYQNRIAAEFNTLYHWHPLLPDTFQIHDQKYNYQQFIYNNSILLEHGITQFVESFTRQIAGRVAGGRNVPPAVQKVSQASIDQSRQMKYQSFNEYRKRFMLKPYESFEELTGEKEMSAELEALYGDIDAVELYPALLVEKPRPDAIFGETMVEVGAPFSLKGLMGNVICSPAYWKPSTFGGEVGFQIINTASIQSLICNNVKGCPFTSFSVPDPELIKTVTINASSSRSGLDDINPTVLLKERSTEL
In words: COX-1/2 inhibitor screening kit (BioVision), COX-2. The format is biochemical. As to conditions: 10-dose, 2-fold dilution from 1000 μM; read-out: COX-2 inhibition IC50. As to the method:
as §2, §3

In data set [8] the target is T4, monoamine oxidase A (MAO-A) (Homo sapiens, UniProt P21397).
T4 construct: purchased Sigma-Aldrich
T4 sequence (P21397 1-527): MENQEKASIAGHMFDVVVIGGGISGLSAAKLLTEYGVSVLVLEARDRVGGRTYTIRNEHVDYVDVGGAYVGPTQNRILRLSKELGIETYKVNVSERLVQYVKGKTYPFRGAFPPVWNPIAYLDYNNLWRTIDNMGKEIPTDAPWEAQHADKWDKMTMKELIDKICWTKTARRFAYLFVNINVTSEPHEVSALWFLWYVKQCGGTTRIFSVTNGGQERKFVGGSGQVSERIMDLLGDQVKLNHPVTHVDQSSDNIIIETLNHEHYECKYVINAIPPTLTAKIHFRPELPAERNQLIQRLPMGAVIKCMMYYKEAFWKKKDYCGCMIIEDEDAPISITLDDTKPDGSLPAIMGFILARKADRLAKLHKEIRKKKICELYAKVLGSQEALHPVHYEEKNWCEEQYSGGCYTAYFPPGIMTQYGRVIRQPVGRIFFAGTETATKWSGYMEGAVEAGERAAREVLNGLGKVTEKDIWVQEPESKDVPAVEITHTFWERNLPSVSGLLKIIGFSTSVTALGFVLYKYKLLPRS
Put plainly: Monoamine Oxidase A (MAO-A) Inhibitor Screening Kit. In kind it is biochemical. As to conditions: 10-dose, 2-fold dilution from 100 μM; substrate tyramine; read-out: MAO-A inhibition IC50. As to the method:
The production of H2O2 generated by the oxidative deamination of the MAO substrate tyramine was measured fluorometrically using the CLARIOstar microplate reader at Ex/Em=535/587 nm. Data is represented as the percentage of MAO enzymatic activity inhibition relative to the log of the compound and a curve fit for the control compound. Corresponding IC50 values were calculated.

Data set [9] deals with COX-1 (Homo sapiens, UniProt P23219). The following applies: in vitro; cited from earlier work.
Sequence of COX-1 (Homo sapiens, UniProt P23219) (P23219 24-599): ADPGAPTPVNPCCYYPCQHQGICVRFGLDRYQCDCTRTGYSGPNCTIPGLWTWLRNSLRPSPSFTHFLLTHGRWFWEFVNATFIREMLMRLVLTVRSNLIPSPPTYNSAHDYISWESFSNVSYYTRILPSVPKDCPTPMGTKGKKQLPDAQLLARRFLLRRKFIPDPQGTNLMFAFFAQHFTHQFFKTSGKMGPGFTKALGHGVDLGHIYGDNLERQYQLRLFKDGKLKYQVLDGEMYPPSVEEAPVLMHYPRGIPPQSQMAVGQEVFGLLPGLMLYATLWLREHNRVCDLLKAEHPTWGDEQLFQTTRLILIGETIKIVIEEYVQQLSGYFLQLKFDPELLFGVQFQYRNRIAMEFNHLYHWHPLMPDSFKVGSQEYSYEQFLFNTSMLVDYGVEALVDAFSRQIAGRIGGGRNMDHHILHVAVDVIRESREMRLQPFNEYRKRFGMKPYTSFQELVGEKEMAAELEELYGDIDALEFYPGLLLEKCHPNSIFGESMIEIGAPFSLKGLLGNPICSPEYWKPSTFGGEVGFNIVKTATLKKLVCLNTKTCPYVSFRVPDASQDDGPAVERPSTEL
For data set [10], the target named is T3, COX-2. The following applies: in vitro; cited from earlier work.
The test system of the next data set is lipoxygenase. The following applies: in vitro; cited from earlier work.

SMILES strings stand for the structures.

One may read the IC50 as the concentration needed to halve the response being measured. With `COC(=O)[C@H](O)CC(=O)OCCc1ccc(O)c(O)c1` (stereo in doubt) [MMBHTE, methyl malate-β-hydroxytyrosol ester], the “toxicity profile (cell viability)” value in [1], in [2], in data set [3] and in [4] was “very favorable toxicity profile” in each case. The IC50 in [5] was 11.9 nM; at COX-1 [6], 1720 ± 90 nM; on COX-2 [7], 81.6 ± 7.7 µM; in data set [8], 0.443 ± 0.158 µM.
`OCCc1ccc(O)c(O)c1` [HT, hydroxytyrosol, reference compound]: the IC50 was 21.8 nM in [5] and 39.1 ± 31.5 µM in [8].
`C/C=C(/C=O)[C@@H](CC=O)CC(=O)OCCc1ccc(O)cc1` [Oleocanthal]: the IC50 was 430 ± 50 nM at COX-1 [6] and 352 ± 7.7 µM at COX-2 [7]. Moreover, the “inhibition of COX-1” value on COX-1 [9] is “dose-dependent inhibitor”. Also, the “inhibition of COX-2” value on COX-2 [10] is “dose-dependent inhibitor”. The effect on lipoxygenase entry with lipoxygenase is given as “no effect”.
